Assay results published in patent publication US6346622B1, “2-substituted 1,2-benzisothiazole derivatives and their use as serotonin antagonists (5-HT1A, 5HT1B and 5-HT1D)” (Abbott Laboratories, priority 1997, dated 2002).
Structures can show the parent of a compound that is named as a salt.

test system: not given; conditions: not given

Row | melting point [°C] | SMILES
1 | 207 | COc1ccc(N2CCN(CCN3C(C)(C)c4ccccc4S3(=O)=O)CC2)cc1 (as salt: hydrochloride)
2 | 160 | COc1ccccc1N1CCN(CC(O)CN2C(C)(C)c3ccccc3S2(=O)=O)CC1 (stereo not drawn)
3 | 269 | CC1(C)c2ccc(-n3cccc3)cc2S(=O)(=O)N1CCCN1CCN(c2cccc3ccccc23)CC1 (as salt: hydrochloride)
4 | 271 | CC1(C)c2ccccc2S(=O)(=O)N1CCN1CCN(c2cccc3c2CCC3)CC1 (as salt: hydrochloride)
5 | 282 | CC1(C)c2ccccc2S(=O)(=O)N1CCN1CCN(c2cccc3ccccc23)CC1 (as salt: hydrochloride)
6 | 179 | CCC1(CC)c2ccccc2S(=O)(=O)N1CCCN1CCN(c2cccc3ccccc23)CC1
7 | 203 | CC1(C)c2ccc([N+](=O)[O-])cc2S(=O)(=O)N1CCCN1CCN(c2cccc3ccccc23)CC1
8 | 228 | CC1(C)c2ccccc2S(=O)(=O)N1CCN1CCN(c2ccccc2C#N)CC1 (as salt: hydrochloride)
9 | 193 | C=C(CN1CCN(c2cccc3ccccc23)CC1)CN1C(C)(C)c2ccccc2S1(=O)=O
10 | 263 | CC1(C)c2ccccc2S(=O)(=O)N1CCCN1CCN(c2ncccn2)CC1 (as salt: hydrochloride)
11 | 63 | CC1(C)c2ccccc2S(=O)(=O)N1CCCN1CCN(c2ccc3ccccc3n2)CC1
12 | 178 | CC1(C)c2ccccc2S(=O)(=O)N1CCN1CCN(c2ncnc3ccccc23)CC1 (as salt: hydrochloride)
13 | 218 | Cc1ccc(C)c(N2CCN(CCCN3C(C)(C)c4ccccc4S3(=O)=O)CC2)c1 (as salt: hydrochloride)
14 | 269 | CC1(C)c2ccccc2S(=O)(=O)N1CCCN1CCN(c2nc(-c3ccccc3)nc3ccccc23)CC1 (as salt: hydrochloride)
15 | 291 | Cc1cccc(N2CCN(CCN3C(C)(C)c4ccccc4S3(=O)=O)CC2)c1C (as salt: hydrochloride)
16 | 151 | CC1(C)c2ccccc2S(=O)(=O)N1CCCN1CCN(c2ccc(Cl)c3ccccc23)CC1

test system: serotonin release in the cortex; conditions: after systemic administration; cited from earlier work

Row | SMILES | serotonin release in the cortex
17 | COc1ccc(NC(=O)c2ccc(-c3ccc(-c4noc(C)n4)cc3C)cc2)cc1N1CCN(C)CC1 [GR 127 935] | reduces serotonin release

test system: serotonin release in the dorsal raphe nucleus; conditions: rat; together with paroxetine; cited from earlier work

Row | SMILES | effect of paroxetine on serotonin release in the dorsal raphe nucleus
18 | COc1ccc(NC(=O)c2ccc(-c3ccc(-c4noc(C)n4)cc3C)cc2)cc1N1CCN(C)CC1 [GR 127 935] | potentiated
